According to patent publication US20250186408A1, “TREATMENT OF PHARMACORESISTANT EPILEPSY” (Katholieke Universiteit Leuven, priority 2021, published 2025):
pEC50, pIC50: −log10 of the molar value. Where two headings read alike, the source gives them in different places.

Legend:
[1] = target: ADORA2A (Homo sapiens, UniProt P29274); assay: Calcium Flux ADORA2A Agonist; type: cell-based; settings: for pEC50: read-out: RC50, result type EC50; for Emax: read-out: Max response
Procedure: (§1) (≤0.2% DMSO concentration). Assays were performed in 1× dye loading buffer consisting of 1× Dye (DiscoverX, Calcium No Wash^PLUS kit, Catalog No. 90-0091), 1× Additive A and 2.5 mM Probenecid in HBSS/20 mM HEPES. Probenecid was prepared fresh. Prior to testing, media was aspirated from cells and replaced with 25 μL dye loading buffer. Cells were incubated for 45 min at 37° C. and then 20 min at RT. For agonist determination, 25 μL of 2× compound in HBSS/20 mM HEPES was added using a FLIPR Tetra (MDS). […] 25 μL of 2× sample was added and cells were incubated for 30 min at RT in the dark to equilibrate plate temperature. After incubation, antagonist determination was initiated by addition of 25 μL of 1× compound with 3×EC80 agonist using FLIPR. For both agonist and antagonist formats, activity was measure on a FLIPR Tetra (MDS). Calcium mobilization was monitored for 2 min with a 5 sec baseline read.
(§2) FLIPR read—Area under the curve, was calculated for the entire 2 min read.

[2] = target: HTR1B (Homo sapiens, UniProt P28222); assay: cAMP HTR1B Antagonist; settings: for Emax: read-out: Max response
Chain of HTR1B (P28222 whole entry): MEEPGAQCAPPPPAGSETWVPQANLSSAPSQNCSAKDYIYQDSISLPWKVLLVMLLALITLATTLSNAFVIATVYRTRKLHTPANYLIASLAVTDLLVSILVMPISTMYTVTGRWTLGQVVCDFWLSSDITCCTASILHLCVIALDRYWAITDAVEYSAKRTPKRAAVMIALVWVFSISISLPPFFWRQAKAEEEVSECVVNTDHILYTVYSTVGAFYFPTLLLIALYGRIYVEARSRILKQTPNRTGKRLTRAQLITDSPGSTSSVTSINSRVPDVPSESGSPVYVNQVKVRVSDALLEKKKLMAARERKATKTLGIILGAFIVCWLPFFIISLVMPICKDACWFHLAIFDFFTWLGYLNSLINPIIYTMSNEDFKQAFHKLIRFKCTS
Procedure: (§3) In vitro pharmacological profiling of compounds was done against 78 functional assays for 47 common off-targets (30) by Eurofins DiscoverX Corporation (Fremont, CA, USA) using their SAFETYscan E/IC50 ELECT service (Cat Ref 87-1003DR, Safety47 Panel Dose Response). […] Compounds were tested in a range of 10 concentrations, following a 3-fold serial dilution, starting from 10 μM.
(§4) cAMP Hunter cell lines were expanded from freezer stocks. Prior to testing, cells were seeded in a total volume of 20 μL into white walled 384-well microplates and incubated at 37° C. cAMP modulation was determined using the DiscoverX HitHunter cAMP XS+ assay. For Gs agonist determination, cells were incubated with sample to induce response. For Gi agonist determination, cells were incubated with sample in the presence of EC80 forskolin to induce response. For both conditions, media was aspirated from cells and replaced with 15 μL 2:1 HBSS/10 mM HEPES:cAMP XS+ Ab reagent. Intermediate dilution of sample stocks was performed to generate 4× sample in assay buffer (containing 4×EC80 forskolin in the case of antagonist determination). 5 μL of 4× sample was added to cells and incubated at 37° C. or room temperature (RT) for 30 or 60 min. Final assay vehicle concentration was 1%. For antagonist determination, cells were pre-incubated with sample followed by agonist challenge at the EC80 concentration. Media was aspirated from cells and replaced with 10 μL 1:1 HBSS/HEPES:cAMP XS+ Ab reagent. 5 μL of 4× compound was added to the cells and incubated at 37° C. or RT for 30 min. 5 μL of 4×EC80 agonist was added to the cells and incubated at 37° C. or RT for 30 or 60 min. For Gi coupled GPCRs, EC80 forskolin was included. […] Microplates were read following signal generation with a PerkinElmer Envision™ instrument for chemiluminescent signal detection. Compound activity was analyzed using CBIS data analysis suite (ChemInnovation, CA).

[3] = target: DRD2S (Homo sapiens, UniProt P14416); assay: cAMP DRD2S Antagonist; settings: for Emax: read-out: Max response
Chain of DRD2S (P14416 1-414 isoform P14416-2): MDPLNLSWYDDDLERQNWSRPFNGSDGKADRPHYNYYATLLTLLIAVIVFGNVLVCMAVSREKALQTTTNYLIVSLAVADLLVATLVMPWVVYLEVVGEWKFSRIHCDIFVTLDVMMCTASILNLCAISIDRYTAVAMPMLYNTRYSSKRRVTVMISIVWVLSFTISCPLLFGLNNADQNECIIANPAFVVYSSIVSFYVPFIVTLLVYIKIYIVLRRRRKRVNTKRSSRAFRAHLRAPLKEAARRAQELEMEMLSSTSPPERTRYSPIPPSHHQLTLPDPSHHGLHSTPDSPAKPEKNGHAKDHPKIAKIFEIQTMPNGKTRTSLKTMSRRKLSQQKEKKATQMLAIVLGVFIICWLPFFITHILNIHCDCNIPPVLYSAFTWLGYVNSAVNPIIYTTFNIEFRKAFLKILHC
Procedure: as §3, §4

[4] = target: T1, ADRA2A (Homo sapiens, UniProt P08913); assay: cAMP ADRA2A Antagonist; settings: for Emax: read-out: Max response
T1 sequence (P08913 1-465): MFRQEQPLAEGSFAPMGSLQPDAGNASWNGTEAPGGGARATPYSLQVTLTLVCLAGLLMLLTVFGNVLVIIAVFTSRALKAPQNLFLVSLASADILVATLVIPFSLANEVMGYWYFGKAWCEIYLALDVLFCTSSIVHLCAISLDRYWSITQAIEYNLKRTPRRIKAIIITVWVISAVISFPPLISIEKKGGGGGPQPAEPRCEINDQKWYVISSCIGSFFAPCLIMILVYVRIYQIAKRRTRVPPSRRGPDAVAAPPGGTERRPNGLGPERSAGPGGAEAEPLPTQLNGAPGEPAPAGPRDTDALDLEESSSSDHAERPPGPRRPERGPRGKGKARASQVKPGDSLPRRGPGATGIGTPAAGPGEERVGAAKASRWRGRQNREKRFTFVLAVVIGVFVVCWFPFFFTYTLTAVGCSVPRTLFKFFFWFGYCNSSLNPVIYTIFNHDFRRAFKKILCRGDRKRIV
Procedure: as §3
(§5) cAMP Hunter cell lines were expanded from freezer stocks. Prior to testing, cells were seeded in a total volume of 20 μL into white walled 384-well microplates and incubated at 37° C. cAMP modulation was determined using the DiscoverX HitHunter cAMP XS+ assay. For Gs agonist determination, cells were incubated with sample to induce response. For Gi agonist determination, cells were incubated with sample in the presence of EC80 forskolin to induce response. For both conditions, media was aspirated from cells and replaced with 15 μL 2:1 HBSS/10 mM HEPES:cAMP XS+ Ab reagent. Intermediate dilution of sample stocks was performed to generate 4× sample in assay buffer (containing 4×EC80 forskolin in the case of antagonist determination). 5 μL of 4× sample was added to cells and incubated at 37° C. or room temperature (RT) for 30 or 60 min. Final assay vehicle concentration was 1%. For antagonist determination, cells were pre-incubated with sample followed by agonist challenge at the EC80 concentration. Media was aspirated from cells and replaced with 10 μL 1:1 HBSS/HEPES:cAMP XS+ Ab reagent. 5 μL of 4× compound was added to the cells and incubated at 37° C. or RT for 30 min. 5 μL of 4×EC80 agonist was added to the cells and incubated at 37° C. or RT for 30 or 60 min. For Gi coupled GPCRs, EC80 forskolin was included. […] Microplates were read following signal generation with a PerkinElmer Envision™ instrument for chemiluminescent signal detection. Compound activity was analyzed using CBIS data analysis suite (ChemInnovation, CA). For Gs agonist mode assays, percentage activity was calculated using the following equation:

[5] = target: T2, LCK (Homo sapiens, UniProt P06239); assay: Binding (KINOMEscan) LCK Inhibitor; settings: for pIC50: read-out: RC50, result type IC50; for Emax: read-out: Max response
T2 construct: purchased Eurofins DiscoverX Corporation 87-1003DR; host or cells: E. coli BL21-derived host (T7 phage) or HEK-293
T2 sequence (P06239 whole entry): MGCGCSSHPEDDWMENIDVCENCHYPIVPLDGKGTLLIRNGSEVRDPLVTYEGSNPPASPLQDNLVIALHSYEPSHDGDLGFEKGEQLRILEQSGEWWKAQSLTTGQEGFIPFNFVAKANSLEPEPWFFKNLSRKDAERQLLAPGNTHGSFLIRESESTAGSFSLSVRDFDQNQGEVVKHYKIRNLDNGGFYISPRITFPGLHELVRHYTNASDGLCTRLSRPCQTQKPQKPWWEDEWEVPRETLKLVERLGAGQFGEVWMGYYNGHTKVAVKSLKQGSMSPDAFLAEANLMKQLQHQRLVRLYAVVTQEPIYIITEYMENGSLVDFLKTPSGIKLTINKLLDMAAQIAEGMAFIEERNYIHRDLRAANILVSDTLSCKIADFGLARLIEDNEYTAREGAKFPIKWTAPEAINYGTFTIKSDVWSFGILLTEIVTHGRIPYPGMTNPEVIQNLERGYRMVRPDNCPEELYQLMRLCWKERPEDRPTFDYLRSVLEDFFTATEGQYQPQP
Procedure: For most assays, kinase-tagged T7 phage strains were grown in parallel in 24-well blocks in an E. coli host derived from the BL21 strain. E. coli were grown to log-phase and infected with T7 phage from a frozen stock (multiplicity of infection=0.4) and incubated with shaking at 32° C. until lysis (90-150 min). The lysates were centrifuged (6,000×g) and filtered (0.2 μm) to remove cell debris. The remaining kinases were produced in HEK-293 cells and subsequently tagged with DNA for qPCR detection. Streptavidin-coated magnetic beads were treated with biotinylated small molecule ligands for 30 min at RT to generate affinity resins for kinase assays. The liganded beads were blocked with excess biotin and washed with blocking buffer (SeaBlock (Pierce), 1% BSA, 0.05% Tween 20, 1 mM DTT) to remove unbound ligand and to reduce non-specific phage binding. […] All reactions were performed in polypropylene 384-well plates in a final volume of 0.02 mL. […] The beads were then re-suspended in elution buffer (1×PBS, 0.05% Tween 20, 0.5 μM non-biotinylated affinity ligand) and incubated at RT with shaking for 30 min. The kinase concentration in the eluates was measured by qPCR.
The kinase concentration in the eluates was measured by qPCR. qPCR reactions were assembled by adding 2.5 μL of kinase eluate to 7.5 μL of qPCR master mix containing 0.15 μM amplicon primers and 0.15 μM amplicon probe. The qPCR protocol consisted of a 10 min hot start at 95° C., followed by 35 cycles of 95° C. for 15 sec, 60° C. for 1 min.
Binding constants (Kds) were calculated with a standard dose-response curve using the Hill equation: […]

[6] = target: OPRM1 (Homo sapiens, UniProt P35372); assay: cAMP OPRM1 Agonist; settings: for Emax: OPRM1, read-out: Max response
Chain of OPRM1 (P35372 whole entry): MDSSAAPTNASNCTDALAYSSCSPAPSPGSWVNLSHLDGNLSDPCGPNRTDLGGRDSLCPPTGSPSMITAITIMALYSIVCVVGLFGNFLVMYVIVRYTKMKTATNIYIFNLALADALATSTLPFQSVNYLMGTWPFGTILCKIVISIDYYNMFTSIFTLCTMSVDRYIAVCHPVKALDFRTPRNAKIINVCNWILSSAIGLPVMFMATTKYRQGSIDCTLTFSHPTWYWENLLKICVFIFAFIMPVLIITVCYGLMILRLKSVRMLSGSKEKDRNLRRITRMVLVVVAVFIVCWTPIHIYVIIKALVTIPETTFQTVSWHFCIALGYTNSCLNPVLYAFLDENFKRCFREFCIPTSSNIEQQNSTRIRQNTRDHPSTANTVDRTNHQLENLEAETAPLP
Procedure: as §3, §5

[7] = target: CNR1 (Homo sapiens, UniProt P21554); assay: cAMP CNR1 Antagonist; settings: for Emax: read-out: Max response
Chain of CNR1 (P21554 whole entry): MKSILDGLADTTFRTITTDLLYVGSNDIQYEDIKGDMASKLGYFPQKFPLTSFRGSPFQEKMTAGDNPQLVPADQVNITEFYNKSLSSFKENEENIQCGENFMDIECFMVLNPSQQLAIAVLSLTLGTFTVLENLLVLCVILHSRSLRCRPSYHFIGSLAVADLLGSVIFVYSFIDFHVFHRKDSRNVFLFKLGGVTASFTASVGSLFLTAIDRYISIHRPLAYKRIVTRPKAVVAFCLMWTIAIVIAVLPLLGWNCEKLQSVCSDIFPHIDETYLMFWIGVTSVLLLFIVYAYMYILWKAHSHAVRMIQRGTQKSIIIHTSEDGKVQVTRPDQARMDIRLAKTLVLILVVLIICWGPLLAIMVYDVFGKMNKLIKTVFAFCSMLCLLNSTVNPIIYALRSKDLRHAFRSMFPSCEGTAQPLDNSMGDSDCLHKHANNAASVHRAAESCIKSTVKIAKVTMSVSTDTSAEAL
Procedure: as §3, §5

[8] = target: T3, AVPR1A (Homo sapiens, UniProt P37288); assay: Calcium Flux AVPR1A Antagonist; type: cell-based; settings: for pIC50: read-out: RC50, result type IC50; for Emax: read-out: Max response
T3 sequence (P37288 whole entry): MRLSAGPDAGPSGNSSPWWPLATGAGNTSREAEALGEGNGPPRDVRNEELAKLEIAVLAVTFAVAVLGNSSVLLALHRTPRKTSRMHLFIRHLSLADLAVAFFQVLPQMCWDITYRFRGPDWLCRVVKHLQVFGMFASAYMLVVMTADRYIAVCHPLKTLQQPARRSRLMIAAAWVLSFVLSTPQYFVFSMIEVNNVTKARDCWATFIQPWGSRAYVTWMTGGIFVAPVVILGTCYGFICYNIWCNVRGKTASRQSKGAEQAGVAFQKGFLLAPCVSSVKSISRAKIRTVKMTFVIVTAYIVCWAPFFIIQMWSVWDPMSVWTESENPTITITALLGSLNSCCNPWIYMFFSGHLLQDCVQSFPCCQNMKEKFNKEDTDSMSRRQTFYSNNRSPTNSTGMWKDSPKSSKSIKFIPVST
Procedure: as §1, §2

[9] = target: T4, CHRM2 (Homo sapiens, UniProt P08172); assay: cAMP CHRM2 Antagonist; settings: for Emax: read-out: Max response
T4 sequence (P08172 1-466): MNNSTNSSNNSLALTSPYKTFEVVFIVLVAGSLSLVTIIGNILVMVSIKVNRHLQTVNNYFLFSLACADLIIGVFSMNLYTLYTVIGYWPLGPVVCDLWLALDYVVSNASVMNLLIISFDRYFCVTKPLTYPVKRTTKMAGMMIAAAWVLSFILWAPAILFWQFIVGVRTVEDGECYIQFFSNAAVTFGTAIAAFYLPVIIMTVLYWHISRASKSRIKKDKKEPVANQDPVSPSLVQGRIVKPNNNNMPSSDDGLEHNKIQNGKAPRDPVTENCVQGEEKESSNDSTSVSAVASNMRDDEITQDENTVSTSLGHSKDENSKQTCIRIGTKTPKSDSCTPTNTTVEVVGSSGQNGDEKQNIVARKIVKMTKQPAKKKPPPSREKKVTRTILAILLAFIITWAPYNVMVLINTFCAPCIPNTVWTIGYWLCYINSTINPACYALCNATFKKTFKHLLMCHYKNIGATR
Procedure: as §3, §5

[10] = target: T3, AVPR1A; assay: Calcium Flux AVPR1A Agonist; type: cell-based; settings: for pEC50: read-out: RC50, result type EC50; for Emax: read-out: Max response
Procedure: as §1, §2

Chain of ADORA2A (P29274 whole entry): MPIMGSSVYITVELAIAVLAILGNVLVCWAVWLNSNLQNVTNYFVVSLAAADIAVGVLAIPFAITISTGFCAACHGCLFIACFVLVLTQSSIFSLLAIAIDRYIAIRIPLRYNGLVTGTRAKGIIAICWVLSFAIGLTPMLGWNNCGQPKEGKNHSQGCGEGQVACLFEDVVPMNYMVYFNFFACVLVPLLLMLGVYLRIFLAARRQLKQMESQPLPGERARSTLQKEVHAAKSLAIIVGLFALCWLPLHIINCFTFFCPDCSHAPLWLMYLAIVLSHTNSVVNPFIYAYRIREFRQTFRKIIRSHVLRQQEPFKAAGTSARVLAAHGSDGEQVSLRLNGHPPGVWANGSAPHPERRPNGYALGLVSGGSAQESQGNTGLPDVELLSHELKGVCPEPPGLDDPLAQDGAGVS

| Structure (SMILES) | pEC50 ([1]; Calcium Flux ADORA2A Agonist) | pIC50 [2] | Emax [2] [%] | pIC50 [3] | Emax [3] [%] | pIC50 [4] | Emax [4] [%] | pIC50 ([5]; Binding LCK Inhibitor) | pEC50 [6] | Emax [6] [%] | pIC50 [7] | Emax [7] [%] | pIC50 ([8]; Calcium Flux AVPR1A Antagonist) | pIC50 [9] | Emax [9] [%] | pEC50 ([10]; Calcium Flux AVPR1A Agonist) | further results |
| --- | --- | --- | --- | --- | --- | --- | --- | --- | --- | --- | --- | --- | --- | --- | --- | --- | --- |
| CC(C)(C)c1ccc(C#CC(O)c2ccccc2)cc1 (racemic) [Compound 3.3, rac-3-(4-(tert-butyl)phenyl)-1-phenylprop-2-yn-1-ol] | < 5.00 | 5.19 | 66.2 | 5.10 | 63.5 | < 5.00 | 13 | < 5.00 | < 5.00 | 0 | < 5.00 | 17.5 | < 5.00 | 5.37 | 90.1 | < 5.00 | Emax [1]: 1.8%; Emax [5]: 0%; Emax [8]: 0%; Emax [10]: 8.7% |
| Clc1cccc(C#Cc2n[nH]c3ncccc23)c1 [Compound 10.1, 3-((3-chlorophenyl)ethynyl)-1H-pyrazolo[3,4-b]pyridine] | < 5.00 | < 5.00 | 0 | < 5.00 | 0 | < 5.00 | 0 | < 5.00 | < 5.00 | 9.9 | < 5.00 | 0 | < 5.00 | < 5.00 | 0 | < 5.00 | Emax ([1]; Calcium Flux ADORA2A Agonist): 3%; Emax ([5]; Binding LCK Inhibitor): 0%; Emax ([8]; Calcium Flux AVPR1A Antagonist): 0%; Emax ([10]; Calcium Flux AVPR1A Agonist): 7.9% |
